Results taken from patent US7173012B2, “Hypoglycaemic peptides and methods of use thereof” (International Diabetes Institute, priority 2001, dated 2007).
Entries after “also recorded” stand apart in the source; their conditions may differ. Ends that are not written are not given here.

Assays:
[1] = test system: isolated rat hemidiaphragm muscle; experiment: Glycogen synthesis in isolated rat hemidiaphragm muscle (incorporation of 14C-glucose into glycogen, in presence of insulin); type: cell-based; details: for biological activity on insulin-stimulated glycogen synthesis (in words): isolated rat muscle, FIG. 3 / FIG. 7
Method: Glycogen synthesis in isolated rat hemidiaphragm muscle was measured by the rate of incorporation of radioactive glucose into glycogen (16). Overnight-fasted male albino Wistar rats (20 week old) were killed by decapitation and their hemidiaphragm tissues immediately removed. The hemidiaphragm tissues were pre-incubated for 30 min at 37° C., in Kreb's-Ringer bicarbonate buffer (KRB) containing 1.0% bovine serum albumin BSA, and 1.0 mg/ml glucose gassed pH 7.4. After pre-incubation, the tissues were further incubated for 60 min at 37° C. in 2 ml of incubation buffer in the presence of insulin at a concentration 0.33 μu/ml and the label ^14C-glucose at 0.28 μCi/ml under an atmosphere of carbogen with or without peptide of various concentrations. At the end of the incubation, the tissues were removed and rinsed with cold distilled water, blotted and placed in a plastic centrifuge tubes for glycogen extraction with 30% KOH 10 μl/mg tissue for 5 min in a boiling water bath. The tissue ^14C-glycogen was precipitated with saturated Na2SO4 and absolute alcohol. After centrifugation at 4000×G at 4° C. for 10 min, the supematant was discarded and the precipitate washed twice by resuspending in 66% ethanol and centrifuged as before. The final glycogen precipitate was dissolved in distilled water 30 μl/mg and 1.0 ml of the solution was transferred to a counting vial containing a triton scintillator (8 ml). Radioactivity was determined in a Wallac LKB counter from Pharmacia-Wallac Oy, (Turku, Finland). The total glycogen content in the diaphragm muscle was calculated according to the method of Van Handel (17).
(§1) Experimental procedures for the in vitro and in vivo assays were described in Example 1. In principle, the rate of conversion from glucose into glycogen in isolated hemidiaphragm muscle was used as the index to determine the in vitro activity of peptides (6). The in vivo tests for the peptides were performed on Zucker fatty (fa/fa) rats by i.v. administration of peptides and the reduction of the blood glucose levels was measured and regarded as the index of the hypoglycaemic effect (18).

[2] = test system: male Zucker fatty (fa/fa) rats; experiment: In vivo hypoglycaemic test: blood glucose after i.v. peptide then insulin; design: species or system rat; blood glucose level reduced to a maximum of / Reduction of blood glucose level: unit not given here; details: for in vivo hypoglycaemic effect on blood glucose levels (in words): i.v., overnight-fasted Zucker fatty rats, compared with saline control or comparator peptide
Method: In vivo tests of the hypoglycaemic peptides were performed on overnight-fasted male Zucker fatty (fa/fa) rats 45 min after induction of anaesthesia with an intraperitoneal injection of sodium pentobarbitone at a dose 60 mg/kg body weight. Basal blood glucose samples were collected from the cut tip of the tail. The two femoral veins in the anaesthetised animals were then exposed, followed immediately by an intravenous injection of saline (control) or peptide into the left femoral vein. Approximately 15 min after the administration of peptide or saline via the left femoral vein, insulin was injected via the right femoral vein. […] Blood glucose levels of the collected samples were measured immediately by the glucose oxidation method using a Yellow Springs YSI modal 2300 STAT Glucose Analyzer (Yellow Spring, Ohio).
as §1

[3] = Isoaspartate (β-isomerised) formation in synthetic peptides, by reverse-phase HPLC; type: physicochemical; details: β-isomerised peptide obtained after synthesis (piperidine deprotection, TFA cleavage), HPLC 214 nm
Method: A mixture of synthetic peptides (Gly-His-Thr-Asp, Val-His-Thr-Asp and Asp-His-Thr-Gly) and their corresponding β-isomerised formation (Gly-His-Thr-βAsp, Val-His-Thr-βAsp and βAsp-His-Thr-Gly) were separated by reverse-phase HPLC and eluted with an isocritic running with 2% buffer B (buffer A is 0.1% trifluoroacetic acid in H2O) at 1 ml/min over 30 min. Peptides were determined by their absorbance at 214 nm.
Based on the structure of the UP-401 peptide, analogues with various sequences were synthesised for further biological characterization as shown in Table 1. All synthetic peptides were purified by RP-HPLC using a C18 column and characterized by mass spectrometry. During synthesis, the peptide chains were treated with base (piperidine) in deprotection steps and then eventually treated with TFA at cleavage steps.
Table 2 and FIG. 5 outline the amino acid sequence of the UP-401 peptide and its analogues, and the ratio of nonisomerized and β-isomerised peptide obtained in each.

[4] = 3 mg/kg body weight, Example 1, FIG. 4

Substance | biological activity on insulin-stimulated glycogen synthesis (in words) [1] | in vivo hypoglycaemic effect on blood glucose levels (in words) [2] | Reduction of blood glucose level ([2]; 3 mg, 15 min) | Reduction of blood glucose level ([2]; 3 mg, 30 min) | Reduction of blood glucose level ([2]; 3 mg, 45 min) | Reduction of blood glucose level ([2]; 3 mg, 60 min) | Reduction of blood glucose level ([2]; 3 mg, 75 min) | Reduction of blood glucose level ([2]; 3 mg, 90 min) | Isoasp [3] | also measured
Val-His-Thr-isoAsp-NH2 (VHTX; HELM PEPTIDE1{V.H.T.[O=C(O)[C@H](CC(=O)[*:2])N[*:1]].[am]}$$$$V2.0; N-terminus assumed; SMILES CC(C)[C@H](N)C(=O)N[C@@H](Cc1c[nH]cn1)C(=O)N[C@H](C(=O)N[C@@H](CC(N)=O)C(=O)O)[C@@H](C)O) [UP-406] | reduced the potency | No significant difference |  |  |  |  |  |  |  | biological activity of isoaspartate peptide, reduced to (relative to Val-His-Thr-Asp) ([1]; peptide concentration of 0.1 mM, insulin-stimulated glycogen synthesis): 46%
isoAsp-His-Thr-Gly-NH2 (XHTG; HELM PEPTIDE1{[N[C@@H](CC(=O)[*:2])C(=O)O].H.T.G.[am]}$$$$V2.0; N-terminus assumed; SMILES C[C@@H](O)[C@H](NC(=O)[C@H](Cc1c[nH]cn1)NC(=O)C[C@H](N)C(=O)O)C(=O)NCC(N)=O) [UP-407] | reduced the peptide activity |  |  |  |  |  |  |  |  | biological activity on insulin-stimulated glycogen synthesis (in words) ([1]; listed as βAsp-His-Thr-Gly): also detected
Val-His-Thr-Pro-NH2 (VHTP-NH2) [UP-404] | reduced the potency |  | −0.21 | −0.54 | −0.77 | −0.95 | 0.23 | −0.03 |  | biological activity on insulin-stimulated glycogen synthesis (in words) ([1]; listed as Val-His-Thr-Pro): no appreciable stimulation
Asp-His-Thr-Gly-NH2 (DHTG-NH2) [UP-403] | reduced the peptide activity; also recorded: reduced the potency |  |  |  |  |  |  |  | 75.2 | biological activity on insulin-stimulated glycogen synthesis (in words) ([1]; listed as Asp-His-Thr-Gly): also detected
Gly-His-Thr-Asp-NH2 (GHTD-NH2) [UP-401] | better insulin-potentiating effect than that of the known insulin-potentiating hGH(6–13) peptide | significant | −0.50 | −0.91 | −1.1 | −0.93 | −0.64 | −0.08 | 45.2 | increase of glycogen synthesis ([1]; isolated rat hemi-diaphragm, with insulin, synthetic peptide 0.1 μM (FIG. 3)): 36.3%; hypoglycaemic action diminished after [2, 4]: 90 min; in vivo hypoglycaemic action found after the injection (onset) [2, 4]: 15 min; time of maximal hypoglycaemic effect after treatment [2, 4]: 45 min; time of maximal decrease in blood glucose level after treatment ([2]; 3 mg/kg, Example 2): 60 min
Val-His-Thr-Asp-NH2 (VHTD-NH2) [UP-402] | much higher than that of any other peptide |  | −0.26 | −0.62 | −1.21 | −1.25 | −0.64 | 0.05 | 48.3 | higher glycogen synthesis ([1]; in vitro, insulin-stimulated, isolated rat muscle (FIG. 7)): 68%; blood glucose level reduced to a maximum of ([2]; 3 mg/kg body weight): 0.95; effect on blood glucose prolonged to ([2]; 4.5 mg/kg body weight, FIG. 8): 120 min; Reduction of blood glucose level ([2]; 4.5 mg, 15 min): −0.43; Reduction of blood glucose level ([2]; 4.5 mg, 30 min): −1.03; Reduction of blood glucose level ([2]; 4.5 mg, 45 min): −1.50; Reduction of blood glucose level ([2]; 4.5 mg, 60 min): −1.45; Reduction of blood glucose level ([2]; 4.5 mg, 75 min): −1.52; Reduction of blood glucose level ([2]; 4.5 mg, 90 min): −1.35; Reduction of blood glucose level ([2]; 4.5 mg, 120 min): 0.07
